How the values were obtained:
Type in all cases: in vivo
[1] = system: heartshape false pickerelweed (Monochoria vaginalis (Burm.f.) C.Presl); assay: Test Example 1: herbicidal effect by soil application to paddy field; settings: paddy field soil application; active ingredient 1,000 g per 1 hectare; wettable powder added dropwise to water surface the day after sowing; examined on the 21st day after application
In short: (§1)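 Under greenhouse conditions, seeds sown on puddled paddy soil in 100 cm2 pots under 3 cm of standing water received the test compound; injury was assessed with a standard scoring scheme three weeks (day 21) after treatment.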

[2] = system: Japanese bulrush (Scirpus juncoides Roxb.); assay: as above; settings: paddy field soil application; active ingredient 1,000 g per 1 hectare; wettable powder added dropwise to water surface the day after sowing; examined on the 21st day after application
In short: as §1

[3] = system: early watergrass (Echinochloa oryzicola Vasing); assay: as above; settings: paddy field soil application; active ingredient 1,000 g per 1 hectare; wettable powder added dropwise to water surface the day after sowing; examined on the 21st day after application
In short: as §1

[4] = system: velvetleaf (Abutilon theophrasti medicus); assay: Test Example 2: herbicidal effect by soil application to upland field; settings: soil surface spray, upland field soil, 1,000 g active ingredient per hectare, 21st day after application
In short: (§2)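 Pots of field soil, seeds sown and soil-covered; wettable powder diluted in water sprayed on soil at 1,000 g a.i./ha (1,000 L/ha). Greenhouse-grown; herbicidal effect rated per standard at 21 days post-application.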

[5] = system: barnyardgrass (Echinochloa crus-galli (L.) P. Beauv. var. crus-galli); assay: as above; settings: soil surface spray, upland field soil, 1,000 g active ingredient per hectare, 21st day after application
In short: as §2

[6] = system: green foxtail (Setaria viridis (L.) P. Beauv.); assay: as above; settings: soil surface spray, upland field soil, 1,000 g active ingredient per hectare, 21st day after application
In short: as §2

[7] = system: slender amaranth (Amaranthus viridis L.); assay: as above; settings: soil surface spray, upland field soil, 1,000 g active ingredient per hectare, 21st day after application
In short: as §2

[8] = system: velvetleaf (Abutilon theophrasti medicus); assay: Test Example 3: herbicidal effect by application to upland field (foliage treatment); settings: foliage treatment, plants grown two weeks, 1,000 g active ingredient per hectare, 14th day after application
In short: (§3)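 Dose 1,000 g active ingredient/ha, sprayed as diluted wettable powder over entire plants two weeks after sowing in field soil. Kept in greenhouse; herbicidal effect graded on a standard scale on day 14.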

[9] = system: barnyardgrass (Echinochloa crus-galli (L.) P. Beauv. var. crus-galli); assay: as above; settings: foliage treatment, plants grown two weeks, 1,000 g active ingredient per hectare, 14th day after application
In short: as §3

[10] = system: green foxtail (Setaria viridis (L.) P. Beauv.); assay: as above; settings: foliage treatment, plants grown two weeks, 1,000 g active ingredient per hectare, 14th day after application
In short: as §3

[11] = system: slender amaranth (Amaranthus viridis L.); assay: as above; settings: foliage treatment, plants grown two weeks, 1,000 g active ingredient per hectare, 14th day after application
In short: as §3

Row | SMILES | herbicidal effect, Monochoria vaginalis (Burm. f.) C. Presl [1] | herbicidal effect, Scirpus juncoides Roxb. [2] | herbicidal effect, Echinochloa oryzicola Vasing [3] | herbicidal effect (index), Velvetleaf [4] | herbicidal effect (index), Barnyardgrass [5] | herbicidal effect (index), Green Foxtail [6] | herbicidal effect (index), Slender Amaranth [7] | herbicidal effect (index), Velvetleaf [8] | herbicidal effect (index), Barnyardgrass [9] | herbicidal effect (index), Green Foxtail [10] | herbicidal effect (index), Slender Amaranth [11]
1 | CC(C)(C)S(=O)(=O)Cn1c(C(F)(F)F)ccc(C(=O)C2=C(O)CCCC2=O)c1=O [I-56] | 5 (90% or more of herbicidal effect and crop phytotoxicity) | 5 (90% or more of herbicidal effect and crop phytotoxicity) | 5 (90% or more of herbicidal effect and crop phytotoxicity) | 5 (90% or more of herbicidal effect and crop phytotoxicity) | 4 (70 to less than 90% of herbicidal effect and crop phytotoxicity) | 5 (90% or more of herbicidal effect and crop phytotoxicity) | 5 (90% or more of herbicidal effect and crop phytotoxicity) | 5 (90% or more of herbicidal effect and crop phytotoxicity) | 5 (90% or more of herbicidal effect and crop phytotoxicity) | 5 (90% or more of herbicidal effect and crop phytotoxicity) | 5 (90% or more of herbicidal effect and crop phytotoxicity)
2 | O=C1CCCC(O)=C1C(=O)c1ccc(C(F)(F)F)n(CSCC2CC2)c1=O [I-57] | 5 (90% or more of herbicidal effect and crop phytotoxicity) | 5 (90% or more of herbicidal effect and crop phytotoxicity) | 5 (90% or more of herbicidal effect and crop phytotoxicity) | 5 (90% or more of herbicidal effect and crop phytotoxicity) | 5 (90% or more of herbicidal effect and crop phytotoxicity) | 5 (90% or more of herbicidal effect and crop phytotoxicity) | 5 (90% or more of herbicidal effect and crop phytotoxicity) | 5 (90% or more of herbicidal effect and crop phytotoxicity) | 5 (90% or more of herbicidal effect and crop phytotoxicity) | 5 (90% or more of herbicidal effect and crop phytotoxicity) | 5 (90% or more of herbicidal effect and crop phytotoxicity)
3 | O=C1CCCC(O)=C1C(=O)c1ccc(C(F)(F)F)n(CS(=O)(=O)CC2CC2)c1=O [I-58] | 5 (90% or more of herbicidal effect and crop phytotoxicity) | 5 (90% or more of herbicidal effect and crop phytotoxicity) | 5 (90% or more of herbicidal effect and crop phytotoxicity) | 5 (90% or more of herbicidal effect and crop phytotoxicity) | 5 (90% or more of herbicidal effect and crop phytotoxicity) | 5 (90% or more of herbicidal effect and crop phytotoxicity) | 5 (90% or more of herbicidal effect and crop phytotoxicity) | 5 (90% or more of herbicidal effect and crop phytotoxicity) | 5 (90% or more of herbicidal effect and crop phytotoxicity) | 5 (90% or more of herbicidal effect and crop phytotoxicity) | 5 (90% or more of herbicidal effect and crop phytotoxicity)
4 | O=C1CCCC(O)=C1C(=O)c1ccc(C(F)(F)F)n(CSC2CCCC2)c1=O [I-59] | 5 (90% or more of herbicidal effect and crop phytotoxicity) | 5 (90% or more of herbicidal effect and crop phytotoxicity) | 5 (90% or more of herbicidal effect and crop phytotoxicity) | 5 (90% or more of herbicidal effect and crop phytotoxicity) | 5 (90% or more of herbicidal effect and crop phytotoxicity) | 4 (70 to less than 90% of herbicidal effect and crop phytotoxicity) | 5 (90% or more of herbicidal effect and crop phytotoxicity) | 5 (90% or more of herbicidal effect and crop phytotoxicity) | 5 (90% or more of herbicidal effect and crop phytotoxicity) | 5 (90% or more of herbicidal effect and crop phytotoxicity) | 5 (90% or more of herbicidal effect and crop phytotoxicity)
5 | O=C1CCCC(O)=C1C(=O)c1ccc(C(F)(F)F)n(CS(=O)(=O)C2CCCC2)c1=O [I-60] | 5 (90% or more of herbicidal effect and crop phytotoxicity) | 5 (90% or more of herbicidal effect and crop phytotoxicity) | 5 (90% or more of herbicidal effect and crop phytotoxicity) | 5 (90% or more of herbicidal effect and crop phytotoxicity) | 5 (90% or more of herbicidal effect and crop phytotoxicity) | 5 (90% or more of herbicidal effect and crop phytotoxicity) | 5 (90% or more of herbicidal effect and crop phytotoxicity) | 5 (90% or more of herbicidal effect and crop phytotoxicity) | 5 (90% or more of herbicidal effect and crop phytotoxicity) | 5 (90% or more of herbicidal effect and crop phytotoxicity) | 5 (90% or more of herbicidal effect and crop phytotoxicity)
6 | C=CCSCn1c(C(F)(F)F)ccc(C(=O)C2=C(O)CCCC2=O)c1=O [I-63] | 5 (90% or more of herbicidal effect and crop phytotoxicity) | 5 (90% or more of herbicidal effect and crop phytotoxicity) | 5 (90% or more of herbicidal effect and crop phytotoxicity) | 5 (90% or more of herbicidal effect and crop phytotoxicity) | 5 (90% or more of herbicidal effect and crop phytotoxicity) | 4 (70 to less than 90% of herbicidal effect and crop phytotoxicity) | 5 (90% or more of herbicidal effect and crop phytotoxicity) | 5 (90% or more of herbicidal effect and crop phytotoxicity) | 5 (90% or more of herbicidal effect and crop phytotoxicity) | 5 (90% or more of herbicidal effect and crop phytotoxicity) | 5 (90% or more of herbicidal effect and crop phytotoxicity)
7 | C[S+]([O-])CCn1c(C(F)(F)F)ccc(C(=O)C2=C(O)CCCC2=O)c1=O (centres unmarked) [I-66] | 5 (90% or more of herbicidal effect and crop phytotoxicity) | 5 (90% or more of herbicidal effect and crop phytotoxicity) | 5 (90% or more of herbicidal effect and crop phytotoxicity) | 5 (90% or more of herbicidal effect and crop phytotoxicity) | 5 (90% or more of herbicidal effect and crop phytotoxicity) | 5 (90% or more of herbicidal effect and crop phytotoxicity) | 5 (90% or more of herbicidal effect and crop phytotoxicity) | 5 (90% or more of herbicidal effect and crop phytotoxicity) | 5 (90% or more of herbicidal effect and crop phytotoxicity) | 5 (90% or more of herbicidal effect and crop phytotoxicity) | 5 (90% or more of herbicidal effect and crop phytotoxicity)

From patent publication US8076487B2, “Pyridone derivative and herbicide” (Kumiai Chemical Industry Co., Ltd., priority 2006, dated 2011)
